Experimental data: the supplement of paper PMC11451515

System: NOMO1
Assay: cell viability relative to DMSO control; higher = less cytotoxic
Details: 48 h
Outline: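 In 1536-well plates, 5 μl of leukemia cells were seeded per well: 500 cells/well for NOMO1 or SEM and 1000 cells/well for P12-Ichikawa. Each line had first been adapted for at least four passages in each medium. Library compounds in DMSO were pin-dosed at 11 threefold concentrations between 47 μM and 0.79 nM, and CellTiter-Glo One luminescence was read after 48 h at 37°C. Viability is a per-plate percentage relative to DMSO wells, with cell-free wells as background.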

[1] = HPLM + 10% dialyzed FBS, 0.000781 µM
[2] = HPLM + 10% dialyzed FBS, 0.00234 µM
[3] = HPLM + 10% dialyzed FBS, 0.00702 µM
[4] = HPLM + 10% dialyzed FBS, 0.0211 µM
[5] = HPLM + 10% dialyzed FBS, 0.0632 µM
[6] = HPLM + 10% dialyzed FBS, 0.19 µM
[7] = HPLM + 10% dialyzed FBS, 0.569 µM
[8] = HPLM + 10% dialyzed FBS, 1.71 µM
[9] = HPLM + 10% dialyzed FBS, 5.12 µM
[10] = HPLM + 10% dialyzed FBS, 15.4 µM
[11] = HPLM + 10% dialyzed FBS, 46.1 µM
[12] = RPMI 5 mM glucose + 10% FBS, 0.000781 µM
[13] = RPMI 5 mM glucose + 10% FBS, 0.00234 µM
[14] = RPMI 5 mM glucose + 10% FBS, 0.00702 µM
[15] = RPMI 5 mM glucose + 10% FBS, 0.0211 µM
[16] = RPMI 5 mM glucose + 10% FBS, 0.0632 µM
[17] = RPMI 5 mM glucose + 10% FBS, 0.19 µM
[18] = RPMI 5 mM glucose + 10% FBS, 0.569 µM
[19] = RPMI 5 mM glucose + 10% FBS, 1.71 µM
[20] = RPMI 5 mM glucose + 10% FBS, 5.12 µM
[21] = RPMI 5 mM glucose + 10% FBS, 15.4 µM
[22] = RPMI 5 mM glucose + 10% FBS, 46.1 µM
[23] = RPMI 5 mM glucose + 10% dialyzed FBS, 0.000781 µM
[24] = RPMI 5 mM glucose + 10% dialyzed FBS, 0.00234 µM
[25] = RPMI 5 mM glucose + 10% dialyzed FBS, 0.00702 µM
[26] = RPMI 5 mM glucose + 10% dialyzed FBS, 0.0211 µM
[27] = RPMI 5 mM glucose + 10% dialyzed FBS, 0.0632 µM
[28] = RPMI 5 mM glucose + 10% dialyzed FBS, 0.19 µM
[29] = RPMI 5 mM glucose + 10% dialyzed FBS, 0.569 µM
[30] = RPMI 5 mM glucose + 10% dialyzed FBS, 1.71 µM
[31] = RPMI 5 mM glucose + 10% dialyzed FBS, 5.12 µM
[32] = RPMI 5 mM glucose + 10% dialyzed FBS, 15.4 µM
[33] = RPMI 5 mM glucose + 10% dialyzed FBS, 46.1 µM

CN(C)CCN(Cc1ccc(Cl)cc1)c1ccccn1.Cl
cell viability [1]: 84.4% | cell viability [2]: 90.2% | cell viability [3]: 89.4% | cell viability [4]: 95.3% | cell viability [5]: 91% | cell viability [6]: 78.5% | cell viability [7]: 98.2% | cell viability [8]: 63.8% | cell viability [9]: 93.9% | cell viability [10]: 91.1% | cell viability [11]: 90.3% | cell viability [12]: 85.2% | cell viability [13]: 90% | cell viability [14]: 92.7% | cell viability [15]: 92.6% | cell viability [16]: 84.1% | cell viability [17]: 96.8% | cell viability [18]: 99.2% | cell viability [19]: 85.9% | cell viability [20]: 92% | cell viability [21]: 80% | cell viability [22]: 90.5% | cell viability [23]: 83.5% | cell viability [24]: 95.1% | cell viability [25]: 91.7% | cell viability [26]: 96.1% | cell viability [27]: 94.1% | cell viability [28]: 89.3% | cell viability [29]: 103% | cell viability [30]: 50.5% | cell viability [31]: 87.3% | cell viability [32]: 89.8% | cell viability [33]: 79.6%

O=C1N\2CCC3=C([NH]C4=C3C=CC=C4)C2=N/C5=CC=CC=C15
cell viability [1]: 111% | cell viability [2]: 122% | cell viability [3]: 130% | cell viability [4]: 134% | cell viability [5]: 155% | cell viability [6]: 147% | cell viability [7]: 130% | cell viability [8]: 129% | cell viability [9]: 155% | cell viability [10]: 130% | cell viability [11]: 112% | cell viability [12]: 144% | cell viability [13]: 124% | cell viability [14]: 125% | cell viability [15]: 128% | cell viability [16]: 132% | cell viability [17]: 124% | cell viability [18]: 169% | cell viability [19]: 136% | cell viability [20]: 139% | cell viability [21]: 140% | cell viability [22]: 131% | cell viability [23]: 115% | cell viability [24]: 121% | cell viability [25]: 129% | cell viability [26]: 130% | cell viability [27]: 130% | cell viability [28]: 124% | cell viability [29]: 122% | cell viability [30]: 140% | cell viability [31]: 135% | cell viability [32]: 141% | cell viability [33]: 124%

COC1=CC=C(C=C1)C2CC(=N/N2C3=CC=C(C=C3)[S+](N)([O-])=O)\C4=CC=CC=C4 (configuration not stated)
cell viability [1]: 82.7% | cell viability [2]: 91.2% | cell viability [3]: 98.8% | cell viability [4]: 92.9% | cell viability [5]: 97.4% | cell viability [6]: 97.1% | cell viability [7]: 94.9% | cell viability [8]: 56.1% | cell viability [9]: 24.4% | cell viability [10]: 3.71% | cell viability [11]: 1.86% | cell viability [12]: 85.9% | cell viability [13]: 85.1% | cell viability [14]: 92.5% | cell viability [15]: 102% | cell viability [16]: 102% | cell viability [17]: 98.3% | cell viability [18]: 94.6% | cell viability [19]: 89.5% | cell viability [20]: 35.2% | cell viability [21]: 4.7% | cell viability [22]: 2.12% | cell viability [23]: 82.7% | cell viability [24]: 93.8% | cell viability [25]: 85.6% | cell viability [26]: 103% | cell viability [27]: 98% | cell viability [28]: 86.2% | cell viability [29]: 93.3% | cell viability [30]: 59% | cell viability [31]: 43.3% | cell viability [32]: 4.24% | cell viability [33]: 1.96%

O=C(NNC(=O)c1ccc(CN[S+](=O)([O-])c2ccc(F)c(Cl)c2)cc1)c1ccccc1
cell viability [1]: 105% | cell viability [2]: 105% | cell viability [3]: 116% | cell viability [4]: 121% | cell viability [5]: 112% | cell viability [6]: 103% | cell viability [7]: 104% | cell viability [8]: 117% | cell viability [9]: 113% | cell viability [10]: 82.7% | cell viability [11]: 110% | cell viability [12]: 84.1% | cell viability [13]: 85.2% | cell viability [14]: 85.2% | cell viability [15]: 89.3% | cell viability [16]: 92.9% | cell viability [17]: 99.5% | cell viability [18]: 93.3% | cell viability [19]: 91.3% | cell viability [20]: 96.7% | cell viability [21]: 94.5% | cell viability [22]: 92.6% | cell viability [23]: 92.1% | cell viability [24]: 98.5% | cell viability [25]: 107% | cell viability [26]: 94.2% | cell viability [27]: 111% | cell viability [28]: 105% | cell viability [29]: 103% | cell viability [30]: 102% | cell viability [31]: 115% | cell viability [32]: 112% | cell viability [33]: 115%

C#Cc1cccc(Nc2ncnc3cc(OC)c(OCCCCCCC(=O)NO)cc23)c1
cell viability [1]: 125% | cell viability [2]: 119% | cell viability [3]: 136% | cell viability [4]: 129% | cell viability [5]: 111% | cell viability [6]: 98.2% | cell viability [7]: 41.5% | cell viability [8]: 18.4% | cell viability [9]: 7.85% | cell viability [10]: 8.02% | cell viability [11]: 3.32%

O=C(CCCCCCC(=O)Nc1ccccc1)NO
cell viability [1]: 92.9% | cell viability [2]: 102% | cell viability [3]: 106% | cell viability [4]: 96.9% | cell viability [5]: 113% | cell viability [6]: 104% | cell viability [7]: 102% | cell viability [8]: 111% | cell viability [9]: 67.3% | cell viability [10]: 38.4% | cell viability [11]: 5.95% | cell viability [12]: 81.3% | cell viability [13]: 94% | cell viability [14]: 89.2% | cell viability [15]: 96.4% | cell viability [16]: 110% | cell viability [17]: 105% | cell viability [18]: 109% | cell viability [19]: 98.9% | cell viability [20]: 83.3% | cell viability [21]: 44% | cell viability [22]: 5% | cell viability [23]: 74.9% | cell viability [24]: 90.8% | cell viability [25]: 102% | cell viability [26]: 114% | cell viability [27]: 119% | cell viability [28]: 105% | cell viability [29]: 119% | cell viability [30]: 113% | cell viability [31]: 88.6% | cell viability [32]: 57.6% | cell viability [33]: 6.52%

Cc1[nH]c(/C=C2\C(=O)Nc3ccc([S+](=O)([O-])Cc4c(Cl)cccc4Cl)cc32)c(C)c1C(=O)N1CCC[C@@H]1CN1CCCC1
cell viability [1]: 100% | cell viability [2]: 112% | cell viability [3]: 97.5% | cell viability [4]: 83% | cell viability [5]: 92.8% | cell viability [6]: 96.4% | cell viability [7]: 98.2% | cell viability [8]: 84.3% | cell viability [9]: 81.2% | cell viability [10]: 87.7% | cell viability [11]: 59.9% | cell viability [12]: 108% | cell viability [13]: 101% | cell viability [14]: 89.1% | cell viability [15]: 93.2% | cell viability [16]: 88% | cell viability [17]: 99.9% | cell viability [18]: 99.3% | cell viability [19]: 100% | cell viability [20]: 90.5% | cell viability [21]: 83.4% | cell viability [22]: 79.6% | cell viability [23]: 98.2% | cell viability [24]: 89.8% | cell viability [25]: 90.2% | cell viability [26]: 94.4% | cell viability [27]: 92.7% | cell viability [28]: 102% | cell viability [29]: 85.9% | cell viability [30]: 91.2% | cell viability [31]: 86.4% | cell viability [32]: 84.8% | cell viability [33]: 72.6%

CC(C)(C)c1cc(C(=O)O)c(NC(=O)Nc2ccc3[nH]ncc3c2)s1
cell viability [1]: 98.5% | cell viability [2]: 106% | cell viability [3]: 101% | cell viability [4]: 90.7% | cell viability [5]: 91.1% | cell viability [6]: 86.6% | cell viability [7]: 90.5% | cell viability [8]: 93.9% | cell viability [9]: 98.8% | cell viability [10]: 77.2% | cell viability [11]: 74.3% | cell viability [12]: 85.9% | cell viability [13]: 93.1% | cell viability [14]: 86.6% | cell viability [15]: 90.2% | cell viability [16]: 89.9% | cell viability [17]: 92.3% | cell viability [18]: 91.5% | cell viability [19]: 83.9% | cell viability [20]: 91.2% | cell viability [21]: 77.3% | cell viability [22]: 78% | cell viability [23]: 87.9% | cell viability [24]: 92.5% | cell viability [25]: 84% | cell viability [26]: 89.5% | cell viability [27]: 90.9% | cell viability [28]: 83.1% | cell viability [29]: 83% | cell viability [30]: 94.9% | cell viability [31]: 102% | cell viability [32]: 82.8% | cell viability [33]: 81.6%
